One experiment relates to Wnt signaling. The experiment in a line: TOPFlash (Wnt) reporter assay in stable HEK293T cell line. It counts as cell-based. The text has this:
Wnt signaling is a key target for multiple human cancers, including but not limited to colon cancer, liver cancer, and lung cancer. To identify novel Wnt regulators by high throughput screening, a stable HEK293T cell line containing the TOPFlash reporter was established. Since β-catenin is often activated by mutations in the Wnt pathway, it is important to inhibit Wnt signaling downstream of β-catenin activity. Therefore, the screen was specifically designed to identify Wnt inhibitors that target events downstream of β-catenin. The Wnt signaling was activated by treating cells with lithium chloride to inhibit GSK3 and to stabilize β-catenin, mimicking the constitutively active Wnt signaling in cancer cells. Through this screen, a family of novel Wnt inhibitors that inhibited Wnt signaling at a 0.5-10 μM concentrations (Table 1) was identified.
After 6 h, the cells were treated with 25 mM LiCl to activate Wnt signaling. The inhibition ratio of each compound was determined (Table 1).
For the SAR studies, 58B1 (VMS-7-133) was re-synthesized. Additionally, SD70, a commercial KDM4 inhibitor, was both purchased and re-synthesized (VMS-7-175). […] VMS-7-195 is a biotinylated analog of 58B1. […] Specific KDM inhibitors may be used to target specific KDMs, such as KDM3A, which is highly expressed in many human cancers.
(§1) Identification of a CBA-1 as a novel Wnt inhibitor. The present inventors routinely use TOPFlash reporter assay for Wnt inhibitor screening. To mimic the constitutively active Wnt signaling found in CRC cells, Wnt signaling was activated by inhibiting GSK3 and stabilizing β-catenin. From screening in house small-molecule libraries, CBA-1 (FIG. 4) was identified that inhibited Wnt signaling in TOPFlash reporter assay. To validate the screening results, CBA-1 was tested in CRC cells.
(In general: Reporter assays use an easily measured gene product as a stand-in for the process of interest.)

A further experiment has as its target T1, JMJD1A (KDM3A) (Homo sapiens, UniProt Q9Y4C1).
T1 sequence (Q9Y4C1 1-1321): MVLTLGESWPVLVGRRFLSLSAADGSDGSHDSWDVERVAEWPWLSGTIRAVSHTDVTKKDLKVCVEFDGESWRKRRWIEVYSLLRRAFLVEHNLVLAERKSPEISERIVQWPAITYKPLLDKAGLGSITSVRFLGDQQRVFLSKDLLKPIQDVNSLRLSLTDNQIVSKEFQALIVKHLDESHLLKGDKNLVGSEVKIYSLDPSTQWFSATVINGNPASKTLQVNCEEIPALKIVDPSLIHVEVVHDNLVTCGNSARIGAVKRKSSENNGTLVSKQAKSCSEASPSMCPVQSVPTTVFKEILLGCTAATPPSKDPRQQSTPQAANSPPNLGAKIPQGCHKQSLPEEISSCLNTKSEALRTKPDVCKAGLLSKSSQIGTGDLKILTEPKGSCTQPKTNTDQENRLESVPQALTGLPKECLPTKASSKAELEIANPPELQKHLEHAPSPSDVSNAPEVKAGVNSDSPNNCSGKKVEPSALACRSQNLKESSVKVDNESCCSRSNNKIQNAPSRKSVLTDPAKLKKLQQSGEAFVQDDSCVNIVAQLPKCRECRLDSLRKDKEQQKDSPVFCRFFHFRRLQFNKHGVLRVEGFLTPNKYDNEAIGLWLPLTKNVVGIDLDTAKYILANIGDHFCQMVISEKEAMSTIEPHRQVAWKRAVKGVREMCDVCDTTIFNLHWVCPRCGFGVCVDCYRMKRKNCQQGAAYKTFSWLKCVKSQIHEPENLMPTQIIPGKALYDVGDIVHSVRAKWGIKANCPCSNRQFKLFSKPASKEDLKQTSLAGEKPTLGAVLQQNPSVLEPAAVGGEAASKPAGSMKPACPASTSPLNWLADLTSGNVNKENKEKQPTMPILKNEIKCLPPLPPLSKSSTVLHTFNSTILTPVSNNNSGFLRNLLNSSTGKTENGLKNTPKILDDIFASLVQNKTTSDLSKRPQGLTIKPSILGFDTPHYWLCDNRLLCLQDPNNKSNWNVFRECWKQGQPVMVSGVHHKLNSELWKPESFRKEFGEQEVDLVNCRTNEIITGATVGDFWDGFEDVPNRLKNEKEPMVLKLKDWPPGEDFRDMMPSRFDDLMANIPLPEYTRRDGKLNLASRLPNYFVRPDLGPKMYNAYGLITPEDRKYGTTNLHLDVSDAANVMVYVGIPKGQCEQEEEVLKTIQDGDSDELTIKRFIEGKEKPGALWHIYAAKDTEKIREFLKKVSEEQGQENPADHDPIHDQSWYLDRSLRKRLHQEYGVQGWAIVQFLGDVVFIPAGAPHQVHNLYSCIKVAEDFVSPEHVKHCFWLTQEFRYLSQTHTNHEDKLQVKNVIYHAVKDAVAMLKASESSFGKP
The experiment in a line: Histone demethylase assay / KDM3A enzymatic activity in vitro. It counts as biochemical. The text has this: Histone Demethylase Assay
To further examine the effects of 58B1 on histone demethylase, we screened a panel of purified histone demethylases was screened.
Identification of KDM3A as a target of CBA-1. KDM3A regulated H3K9Me^2 and underwent significant upregulation in CRC. To test if CBA-1 targeted KDM3A, a biotinylated analog CBA-B2 (FIG. 7A) was synthesized. […] Knocking-down KDM3A by shRNA inhibited cell proliferation (FIG. 7D) and Wnt target gene expression in LS174T CRC cells (FIG. 7E).
Repurposing drugs as CBA-1 analogs and KDM3 inhibitors. CBA-1 is a specific and potent KDM3A inhibitor. As backup candidates, two approved drugs were identified as CBA-1 analogs and KDM3A inhibitors. Based on the docking study (FIGS. 8A-B), the N and OH groups (red color in FIG. 12A) are critical in binding the Mn^2+ in KDM3A. […] A virtual screening was performed and several antibiotics that have similar structures were identified. Two of these antibiotics, clioquinol and nitroxoline (FIG. 12B), indeed inhibited the enzymatic activities of KDM3 (FIGS. 12C and D). These two drugs were tested in LS174T tumor xenograft model in SCID mice. […] Nitroxoline has been used in Europe for over 50 years as an antibiotic. It has anticancer effects, but the mechanism remains unclear.

A further experiment has as its system SW620. The experiment can be described thus: Colon cancer cell proliferation. It counts as cell-based. The following applies: SW620 (APC mutation); 5d, Vi-Cell viability assay.
Source text: FIGS. 5A-B show an image and graph illustrating validation of CBA-1. (A) CBA-1 repressed Wnt targets in LS174T CRC cells. (B) CBA-1 inhibited CRC cell proliferation (5d, Vi-Cell viability assay).
as §1

Structures are written as SMILES.

As a reminder, the inhibition is the percentage by which the read-out fell short of the control. In the experiment with Wnt signaling (Homo sapiens, HEK-293T, Table 1, HEK293T TOPFlash, 25 mM LiCl after 6 h), `CCCC(=O)NC(c1ccc(N(CC)CC)cc1)c1cc(Cl)c2cccnc2c1O` (stereo not drawn) [58B1] displayed an inhibition of 95%. Also, the inhibition at 1 µM with Wnt signaling (Homo sapiens, HEK-293T, Table 3, Wnt reporter assay at 1 μM, read-out: Percent inhibition at 1 μM) was found to be 90.9%. Also, the “Wnt signaling in TOPFlash reporter assay” value in the experiment with Wnt signaling (screening of in house libraries) is “inhibited”. Moreover, testing at 10 µM on JMJD1A (KDM3A) (58B1, 10 μM) gave an inhibition of 99%. Further, the “KDM3A activity in vitro, dose-response study” value at JMJD1A (KDM3A) (at low micromolar levels) is given as “inhibited”. The “proliferation of CRC cell lines” value in the experiment on SW620 is reported as “inhibited proliferation”.

These data come from US12599597B2, “Substituted N-benzhydrylacetamide inhibitors of jumanji domain histone demethylases for the treatment of cancer” (University of Kentucky Research Foundation, priority 2020, dated 2026).
